Test results published in ChEMBL document CHEMBL5325468, “Scaffold hopping derived novel benzoxazepinone RIPK1 inhibitors as anti-necroptosis agents” (Bioorg Med Chem, 2023).
The source made the active and inactive calls. The rule behind the calls is not given here.

What was measured:
HT-29 [1] = test: Anti-necroptotic activity against TSZ induced necroptosis in human HT-29 cells preincubated for 12 hrs followed by TSZ addition by CellTiter-Glo luminescent cell viability assay; assay type: functional, cell-based
[2] = Cytotoxicity against human HT-29 cells assessed as reduction in cell viability; assay type: toxicity, cell-based
[3] = molecular target: T1, Receptor-interacting serine/threonine-protein kinase 1 (Homo sapiens, UniProt Q13546); test: Binding affinity to RIPK1 (unknown origin)
T1 sequence (Q13546 whole entry): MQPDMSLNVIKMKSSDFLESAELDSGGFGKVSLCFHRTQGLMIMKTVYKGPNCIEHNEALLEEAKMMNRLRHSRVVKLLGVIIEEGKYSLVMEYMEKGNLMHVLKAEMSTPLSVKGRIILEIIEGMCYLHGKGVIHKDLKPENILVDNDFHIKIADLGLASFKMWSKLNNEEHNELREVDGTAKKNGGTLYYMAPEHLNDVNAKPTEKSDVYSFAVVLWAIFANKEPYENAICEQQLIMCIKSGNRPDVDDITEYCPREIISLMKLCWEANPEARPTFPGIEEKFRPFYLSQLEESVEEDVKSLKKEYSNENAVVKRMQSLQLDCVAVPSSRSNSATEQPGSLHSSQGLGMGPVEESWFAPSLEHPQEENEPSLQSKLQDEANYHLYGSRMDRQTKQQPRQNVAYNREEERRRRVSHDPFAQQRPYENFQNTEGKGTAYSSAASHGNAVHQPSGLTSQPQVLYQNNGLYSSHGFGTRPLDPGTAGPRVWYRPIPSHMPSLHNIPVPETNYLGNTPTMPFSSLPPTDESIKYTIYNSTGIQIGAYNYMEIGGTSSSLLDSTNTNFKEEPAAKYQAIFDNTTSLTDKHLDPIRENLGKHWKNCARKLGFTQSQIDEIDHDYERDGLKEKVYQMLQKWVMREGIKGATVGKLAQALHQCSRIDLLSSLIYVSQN

Mus musculus [4] = species: Mus musculus; test: Protection against TNF-induced SIRS in C57BL/6J mouse assessed as reduction in body temperature loss preincubated for 1 hr followed by mTNF-alpha addition measured after 6 hrs […]; assay type: functional, organism-based; conditions: time 7.0 hrs
[5] = molecular target: T2, Receptor-interacting serine/threonine-protein kinase 3 (Homo sapiens, UniProt Q9Y572); test: Binding affinity to RIPK3 (unknown origin)
Target sequence in this assay (Q9Y572 whole entry): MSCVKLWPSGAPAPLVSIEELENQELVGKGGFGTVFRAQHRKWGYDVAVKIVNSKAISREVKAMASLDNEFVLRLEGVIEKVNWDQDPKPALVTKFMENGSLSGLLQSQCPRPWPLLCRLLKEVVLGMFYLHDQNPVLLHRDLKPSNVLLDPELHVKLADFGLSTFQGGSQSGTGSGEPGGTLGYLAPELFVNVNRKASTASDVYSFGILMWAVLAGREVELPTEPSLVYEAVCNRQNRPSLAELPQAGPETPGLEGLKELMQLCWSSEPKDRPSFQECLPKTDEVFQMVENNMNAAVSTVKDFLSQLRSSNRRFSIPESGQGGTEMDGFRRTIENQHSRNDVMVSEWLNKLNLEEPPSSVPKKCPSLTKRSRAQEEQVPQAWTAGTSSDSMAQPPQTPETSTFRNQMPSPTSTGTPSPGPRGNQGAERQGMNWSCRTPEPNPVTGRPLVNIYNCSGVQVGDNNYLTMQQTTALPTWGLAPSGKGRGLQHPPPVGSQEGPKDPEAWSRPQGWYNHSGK

HT-29 [6] = test: Anti-necroptotic activity against TCZ induced necroptosis in human HT-29 cells incubated for 16 hrs; assay type: functional, cell-based
HT-29 [7] = test: Anti-necroptotic activity against TSZ induced necroptosis in human HT-29 cells incubated for 12 hrs; assay type: functional, cell-based
[8] = molecular target: T2, Receptor-interacting serine/threonine-protein kinase 3; conditions: HT-29, dose 25-100 nM, time 6.0 hrs
Target sequence in this assay (Q9Y572 whole entry, looked up): as the sequence (Q9Y572 whole entry) above

Mus musculus [9] = test: Protection against mTNF-alpha induced SIRS in C57BL/6J mouse assessed as increase in survival rate at 5 mg/kg preincubated for 1 hr followed by mTNF-alpha addition measured upto 60 hrs; assay type: functional; conditions: time <= 61 hrs
[10] = molecular target: T2, Receptor-interacting serine/threonine-protein kinase 3; conditions: HT-29, dose 100.0 nM, time 2-6 hrs
Target sequence in this assay (Q9Y572 whole entry, looked up): as the sequence (Q9Y572 whole entry) above
Description: Inhibition of RIPK3 phosphorylation in TSZ induced human HT-29 cells at 100 nM incubated for 2 to 6 hrs by immunoblotting analysis

[11] = molecular target: T3, Receptor-interacting serine/threonine-protein kinase 1 (Homo sapiens) (UniProt Q13546); test: Inhibition of RIPK1 phosphorylation in TSZ induced human HT-29 cells at 100 nM incubated for 2 to 6 hrs by immunoblotting analysis; assay type: cell-based; conditions: time 2-6 hrs
T3 sequence (whole entry): T1 sequence (Q13546 whole entry)

[12] = molecular target: T4, Mixed lineage kinase domain-like protein (Homo sapiens) (UniProt Q8NB16); test: Inhibition of MLKL phosphorylation in TSZ induced human HT-29 cells incubated for 6 hrs by immunoblotting analysis; assay type: cell-based; conditions: dose 25-100 nM
T4 sequence (whole entry): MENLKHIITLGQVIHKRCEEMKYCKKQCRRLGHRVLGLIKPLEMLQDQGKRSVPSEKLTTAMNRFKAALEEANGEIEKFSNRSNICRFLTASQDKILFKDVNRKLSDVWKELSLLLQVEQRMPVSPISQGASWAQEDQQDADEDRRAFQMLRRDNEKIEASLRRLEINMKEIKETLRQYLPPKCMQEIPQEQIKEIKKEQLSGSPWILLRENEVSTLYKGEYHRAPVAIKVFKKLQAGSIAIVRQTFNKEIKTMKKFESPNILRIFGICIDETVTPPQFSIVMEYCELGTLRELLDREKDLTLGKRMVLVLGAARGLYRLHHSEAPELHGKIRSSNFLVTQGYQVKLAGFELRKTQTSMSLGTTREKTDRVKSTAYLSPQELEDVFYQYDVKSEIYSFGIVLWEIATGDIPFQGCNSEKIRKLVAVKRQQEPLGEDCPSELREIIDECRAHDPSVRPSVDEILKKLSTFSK

Mus musculus [13] = test: Protection against mTNF-alpha induced SIRS in C57BL/6J mouse assessed as increase in survival rate at 2.5 mg/kg preincubated for 1 hr followed by mTNF-alpha addition measured upto 60 hrs; assay type: functional; conditions: time <= 61 hrs
[14] = molecular target: T3, Receptor-interacting serine/threonine-protein kinase 1 (Homo sapiens); test: Inhibition of RIPK1 phosphorylation in TSZ induced human HT-29 cells incubated for 6 hrs by immunoblotting analysis; assay type: cell-based; conditions: dose 25-100 nM
Homo sapiens = species: Homo sapiens; test: Selectivity ratio of Kd for RIPK3 (unknown origin) to Kd for RIPK1 (unknown origin)
U-937 = test: Anti-necroptotic activity against TSZ induced necroptosis in human U-937 cells preincubated with compound followed by TSZ addition for 12 hrs; assay type: functional, cell-based
Mus musculus [15] = test: Protection against mTNF-alpha induced SIRS in C57BL/6J mouse assessed as increase in survival rate at 10 mg/kg preincubated for 1 hr followed by mTNF-alpha addition measured upto 60 hrs; assay type: functional; conditions: time <= 61 hrs
HT-29 [16] = test: Inhibition of TSZ induced necrosomes formation in human HT-29 cells at 100 nM incubated for 6 hrs by Western blotting analysis; assay type: functional, cell-based
[17] = molecular target: T4, Mixed lineage kinase domain-like protein (Homo sapiens); test: Inhibition of MLKL phosphorylation in TSZ induced human HT-29 cells at 100 nM incubated for 2 to 6 hrs by immunoblotting analysis; assay type: cell-based; conditions: time 2-6 hrs
Mus musculus [18] = test: Protection against mTNF-alpha induced SIRS in C57BL/6J mouse assessed as increase in survival rate at 20 mg/kg preincubated for 1 hr followed by mTNF-alpha addition measured upto 60 hrs; assay type: functional; conditions: time <= 61 hrs

| Structure (SMILES) | EC50 (HT-29 [1]) | CC50 [2] | also measured |
| --- | --- | --- | --- |
| Cc1cccc(-c2cccc3cc(C(=O)N[C@H]4COc5ccccc5N(C)C4=O)[nH]c23)c1 | 271 nM | > 100 µM |  |
| CN1C(=O)[C@@H](NC(=O)c2cc3cccc(-c4ccc(F)cc4)c3[nH]2)COc2ccccc21 | 356 nM | > 100 µM |  |
| CN1C(=O)[C@@H](NC(=O)c2nnc(Cc3ccccc3)[nH]2)COc2ccccc21 [GSK2982772] |  | > 50 µM |  |
| Cc1cccc(-c2cccc3cc(C(=O)N[C@H]4COc5ccccc5N(C)C4=O)[nH]c23)c1C | 302 nM | > 100 µM |  |
| CN1C(=O)[C@@H](NC(=O)c2cc3cccc(-c4cccc5ccccc45)c3[nH]2)COc2ccccc21 | 956 nM | > 100 µM |  |
| Cc1ccc(-c2cccc3cc(C(=O)N[C@H]4COc5ccccc5N(C)C4=O)[nH]c23)cc1 | 1250 nM | > 100 µM |  |
| CN1C(=O)[C@@H](NC(=O)c2cc3cccc(-c4c(F)cccc4F)c3[nH]2)COc2ccccc21 | 2170 nM | > 100 µM |  |
| CN1C(=O)[C@@H](NC(=O)c2cc3cccc(-c4ccccc4F)c3[nH]2)COc2ccccc21 | 32.3 nM | > 100 µM | Kd [3]: 190 nM |
| CN1C(=O)[C@@H](NC(=O)c2cc3cccc(-c4cccc(F)c4F)c3[nH]2)COc2ccccc21 | 145 nM | > 100 µM | Kd [3]: 260 nM |
| CN1C(=O)[C@@H](NC(=O)c2cc3cccc(-c4cccc(-c5ccccc5)c4)c3[nH]2)COc2ccccc21 | > 10000 nM | > 100 µM |  |
| CN1C(=O)[C@@H](NC(=O)c2cc3cccc(-c4ccccc4-c4ccccc4)c3[nH]2)COc2ccccc21 | > 10000 nM | > 100 µM |  |
| COc1cccc(-c2cccc3cc(C(=O)N[C@H]4COc5ccccc5N(C)C4=O)[nH]c23)c1 | 128 nM | > 100 µM |  |
| Cc1cccc(C)c1-c1cccc2cc(C(=O)N[C@H]3COc4ccccc4N(C)C3=O)[nH]c12 | 1480 nM | > 100 µM |  |
| CN1C(=O)[C@@H](NC(=O)c2cc3cccc(-c4ccc(C(F)(F)F)cc4)c3[nH]2)COc2ccccc21 | 3850 nM | > 100 µM |  |
| CN1C(=O)[C@@H](NC(=O)c2cc3cccc(-c4ccc(F)c(F)c4)c3[nH]2)COc2ccccc21 | 128 nM | > 100 µM |  |
| Cc1ccc(-c2cccc3cc(C(=O)N[C@H]4COc5ccccc5N(C)C4=O)[nH]c23)cc1C | 1660 nM | > 100 µM |  |
| CN1C(=O)[C@@H](NC(=O)c2cc3cccc(-c4ccc(F)cc4F)c3[nH]2)COc2ccccc21 | 392 nM | > 100 µM | Kd [3]: 200 nM |
| Cc1ccc(-c2cccc3cc(C(=O)N[C@H]4COc5ccccc5N(C)C4=O)[nH]c23)c(C)c1 | 4360 nM | > 100 µM |  |
| COc1ccccc1-c1cccc2cc(C(=O)N[C@H]3COc4ccccc4N(C)C3=O)[nH]c12 | 775 nM | > 100 µM |  |
| CN1C(=O)[C@@H](NC(=O)c2cc3cccc(-c4ccccc4)c3[nH]2)COc2ccccc21 | 16.2 nM | > 100 µM | Activity (Mus musculus [4]): Active; Kd [5]: 2400 nM; Activity (HT-29 [6]): Active; Activity (HT-29 [7]): Dose-Dependent Effect; inhibition [8]: Dose-Dependent Effect; Activity (Mus musculus [9]): 100%; inhibition [10]: Active; inhibition [11]: Active; inhibition [12]: Dose-Dependent Effect; Kd [3]: 190 nM; Activity (Mus musculus [13]): 75%; inhibition [14]: Dose-Dependent Effect; Selectivity ratio (Homo sapiens): 8; Activity (U-937): Dose-Dependent Effect; Activity (Mus musculus [15]): 100%; inhibition (HT-29 [16]): Active; inhibition [17]: Active |
| CN1C(=O)[C@@H](NC(=O)c2cc3cccc(-c4ccccc4C(F)(F)F)c3[nH]2)COc2ccccc21 | 163 nM | > 100 µM |  |
| Cc1ccc(C)c(-c2cccc3cc(C(=O)N[C@H]4COc5ccccc5N(C)C4=O)[nH]c23)c1 | 2060 nM | > 100 µM |  |
| CN1C(=O)[C@@H](NC(=O)c2cc3cccc(-c4ccc(-c5ccccc5)cc4)c3[nH]2)COc2ccccc21 | 438 nM | > 100 µM |  |
| Cc1ccccc1-c1cccc2cc(C(=O)N[C@H]3COc4ccccc4N(C)C3=O)[nH]c12 | 45.4 nM | > 100 µM | Kd [3]: 270 nM |
| CN1C(=O)[C@@H](NC(=O)c2cc3cccc(-c4ccc5ccccc5c4)c3[nH]2)COc2ccccc21 | 18100 nM | > 100 µM |  |
| CN1C(=O)[C@@H](NC(=O)c2cc3cccc(-c4cccc(C(F)(F)F)c4)c3[nH]2)COc2ccccc21 | 2060 nM | > 100 µM |  |
| CN1C(=O)[C@@H](NC(=O)c2n[nH]c(Cc3ccccc3)n2)COc2ccccc21 [GSK2982772] | 4.1 nM |  | Activity (Mus musculus [4]): Active; Activity (Mus musculus [18]): 90% |
| CN1C(=O)[C@@H](NC(=O)c2cc3cccc(-c4cccc(F)c4)c3[nH]2)COc2ccccc21 | 96 nM | > 100 µM |  |
| COc1ccc(-c2cccc3cc(C(=O)N[C@H]4COc5ccccc5N(C)C4=O)[nH]c23)cc1 | 3800 nM | > 100 µM |  |
| CN1C(=O)[C@@H](NC(=O)c2cc3cccc(-c4cc(F)ccc4F)c3[nH]2)COc2ccccc21 | 88.5 nM | > 100 µM | Kd [3]: 190 nM |
